A word on the IC50: it is the concentration that gives 50% inhibition.

These results are taken from patent US20240218022A1, “ANTI-VISTA MACROCYCLIC PEPTIDES AND COMPOSITIONS” (BRISTOL-MYERS SQUIBB COMPANY, priority 2022, published 2024).

Read-outs that look alike come from different tables or passages of the source. Starred links: 1 amine or outer side, 2 acyl side, 3 side chain; linkers in the order of their positions; H or OH if unused. Positions of bridges follow the written chain, without caps; N, C: chain ends. Non-standard residues stand in square brackets, D forms with d. Residues, ends and D or L forms follow the SMILES beside them. Phe(3-Me) = Cc1cccc(C[C@H](N)C(=O)O)c1; γGlu = O=C(O)[C@H](CCC(=O)[*:2])N[*:1]; βAsp = O=C(O)[C@H](CC(=O)[*:2])N[*:1]; Ahp(2) = CCCCC[C@H](N)C(=O)O; NMeNle = CCCC[C@H](NC)C(=O)O; Tle = CC(C)(C)[C@H](N)C(=O)O; NHexGly = CCCCCCNCC(=O)O; Nle = CCCC[C@H](N)C(=O)O; Aun = NCCCCCCCCCCC(=O)O; Dap = NC[C@H](N)C(=O)O; AEEA = NCCOCCOCC(=O)O

This test concerns the target T1, mouse VISTA (mVISTA) (Mus musculus, UniProt Q9D659).
T1 construct: expressed in transfected cells; host or cells: Human embryonic kidney 293T cells
T1 sequence (Q9D659 33-308): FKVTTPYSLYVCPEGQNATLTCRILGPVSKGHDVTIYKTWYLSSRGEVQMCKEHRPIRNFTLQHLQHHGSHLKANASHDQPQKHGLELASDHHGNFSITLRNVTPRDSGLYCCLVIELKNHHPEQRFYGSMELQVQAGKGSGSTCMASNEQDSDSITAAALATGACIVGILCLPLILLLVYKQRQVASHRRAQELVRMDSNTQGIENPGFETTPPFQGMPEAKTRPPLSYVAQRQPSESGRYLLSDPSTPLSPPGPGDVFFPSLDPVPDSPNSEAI
The test is described as follows: Cell-Based Binding High-Content Assay For mVISTA (HC CBA mVISTA). The conditions noted are these: read-out: HC CBA mVISTA IC50. The method, boiled down:
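293T cells expressing mouse VISTA, with compounds added either after seeding ("no wash") or before seeding and then washed out after 1 h. Biotinylated peptide 2 nM for 30 min at room temperature, then detection with Alexa 647–streptavidin. After fixation with Hoechst stain, plates were high-content imaged; IC50 from four-parameter logistic fit.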

[1] abbreviates: cell-based binding high-content assay.

Consider `CCCCCCN1CC(=O)N[C@@H](Cc2ccc(O)cc2)C(=O)N[C@@H](CCCC)C(=O)N[C@@H](CC(N)=O)C(=O)N[C@@H](CCCNC(=N)N)C(=O)N(C)[C@@H](CCCC)C(=O)N[C@@H](CCCCC)C(=O)N2CCC[C@H]2C(=O)N[C@@H](C(C)(C)C)C(=O)N[C@@H](CO)C(=O)N[C@H](C(=O)NCC(=O)N[C@@H](CC(=O)NCCOCCOCC(=O)NCCCCCCCCCCC(=O)O)C(=O)O)CSCC(=O)N[C@@H](Cc2ccccc2)C(=O)N[C@@H](Cc2cccc(C)c2)C(=O)N[C@@H](CC(=O)O)C1=O` [Example 2327] ({CH2CO}-F[Phe(3-Me)]D[NHexGly]Y[Nle]NR[NMeNle][Ahp(2)]P[Tle]SCG[βAsp][AEEA][Aun]-OH; thioether N-14), for which the IC50 under setting [1] is 33.7 nM. Same read-out and setting: in the case of `CCCCCCN1CC(=O)N[C@@H](Cc2ccc(O)cc2)C(=O)N[C@@H](CCCC)C(=O)N[C@@H](CC(N)=O)C(=O)N[C@@H](CCCNC(=N)N)C(=O)N(C)[C@@H](CCCC)C(=O)N[C@@H](CCCCC)C(=O)N2CCC[C@H]2C(=O)N[C@@H](C(C)(C)C)C(=O)N[C@@H](CC(=O)O)C(=O)N[C@H](C(=O)N[C@@H](CO)C(=O)NCCOCCOCC(=O)NCCCCCCCCCCC(=O)O)CSCC(=O)N[C@@H](Cc2ccccc2)C(=O)N[C@@H](Cc2c[nH]c3ccccc23)C(=O)N[C@@H](CC(=O)O)C1=O` [Example 2337] ({CH2CO}-FWD[NHexGly]Y[Nle]NR[NMeNle][Ahp(2)]P[Tle]DCS[AEEA][Aun]-OH; thioether N-14) it was 21.7 nM; in that of `CCCCCCN1CC(=O)N[C@@H](Cc2ccc(O)cc2)C(=O)N[C@@H](CCCC)C(=O)N[C@@H](CC(N)=O)C(=O)N[C@@H](CCCNC(=N)N)C(=O)N(C)[C@@H](CCCC)C(=O)N[C@@H](CCCCC)C(=O)N2CCC[C@H]2C(=O)N[C@@H](C(C)(C)C)C(=O)N[C@@H](CC(=O)O)C(=O)N[C@H](C(=O)N[C@@H](CC(N)=O)C(=O)NCCOCCOCC(=O)NCCCCCCCCCCC(=O)O)CSCC(=O)N[C@@H](Cc2ccccc2)C(=O)N[C@@H](Cc2c[nH]c3ccccc23)C(=O)N[C@@H](CC(=O)O)C1=O` [Example 2338] ({CH2CO}-FWD[NHexGly]Y[Nle]NR[NMeNle][Ahp(2)]P[Tle]DCN[AEEA][Aun]-OH; thioether N-14), 52 nM; in that of `CCCCCCN1CC(=O)N[C@@H](Cc2ccc(O)cc2)C(=O)N[C@@H](CCCC)C(=O)N[C@@H](CC(N)=O)C(=O)N[C@@H](CCCNC(=N)N)C(=O)N(C)[C@@H](CCCC)C(=O)N[C@@H](CCCCC)C(=O)N2CCC[C@H]2C(=O)N[C@@H](C(C)(C)C)C(=O)N[C@@H](CC(=O)O)C(=O)N[C@H](C(=O)N[C@@H](CN)C(=O)NCCOCCOCC(=O)NCCCCCCCCCCC(=O)O)CSCC(=O)N[C@@H](Cc2ccccc2)C(=O)N[C@@H](Cc2c[nH]c3ccccc23)C(=O)N[C@@H](CC(=O)O)C1=O` [Example 2339] ({CH2CO}-FWD[NHexGly]Y[Nle]NR[NMeNle][Ahp(2)]P[Tle]DC[Dap][AEEA][Aun]-OH; thioether N-14), 26.1 nM. Turning to `CCCCCCN1CC(=O)N[C@@H](Cc2ccc(O)cc2)C(=O)N[C@@H](CCCCC)C(=O)N[C@@H](CC(N)=O)C(=O)N[C@@H](CCCNC(=N)N)C(=O)N[C@@H](CC(C)C)C(=O)N[C@@H](CCCCC)C(=O)N2CCC[C@H]2C(=O)N[C@@H](C(C)C)C(=O)N[C@@H](CO)C(=O)N[C@H](C(=O)N[C@@H](CCC(=O)NCCCCCCCCCCC(=O)O)C(=O)O)CSCC(=O)N[C@@H](Cc2ccccc2)C(=O)N[C@@H](Cc2ccc(O)cc2)C(=O)N[C@@H](CC(=O)O)C1=O` [Example 2340] ({CH2CO}-FYD[NHexGly]Y[Ahp(2)]NRL[Ahp(2)]PVSC[γGlu][Aun]-OH; thioether N-14), the IC50 was found to be 19 nM.
